According to PubChem BioAssay AID248 (DTP/NCI, 2004):
Several values for one entry are separate records, joined by “and”; a condition that tells them apart may be missing. Identical values can stand only once. Toxic doses and inconclusive results are not listed. Rule as the data show it: active = T/C of 150% or more; inactive = T/C below 125%.

System: L1210 leukemia ip in BDF1 mice, survival T/C
Assay: NCI In Vivo Anticancer Drug Screen. Data for tumor model L1210 Leukemia (intraperitoneal) in B6D2F1 (BDF1) mice
Settings: endpoint: mean survival time, higher = longer survival
Method in brief: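 Each compound was tested against a transplantable tumor grown in mice. The endpoint was survival, with treated animals benchmarked against vehicle controls as a simple ratio.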

[1] = dose: 300.0 mg/kg/injection, schedule: Q01DX001 (ip), vehicle: saline
[2] = dose: 100.0 mg/kg/injection, schedule: Q01DX009 (ip), vehicle: Klucel (hydroxypropylcellulose) (HPC)
[3] = dose: 100.0 mg/kg/injection, schedule: Q04DX003 (ip), vehicle: Klucel (hydroxypropylcellulose) (HPC)
[4] = dose: 200.0 mg/kg/injection, schedule: Q01DX009 (ip), vehicle: Klucel (hydroxypropylcellulose) (HPC)
[5] = dose: 200.0 mg/kg/injection, schedule: Q04DX003 (ip), vehicle: Klucel (hydroxypropylcellulose) (HPC)
[6] = dose: 400.0 mg/kg/injection, schedule: Q01DX009 (ip), vehicle: Klucel (hydroxypropylcellulose) (HPC)
[7] = dose: 400.0 mg/kg/injection, schedule: Q04DX003 (ip), vehicle: Klucel (hydroxypropylcellulose) (HPC)
[8] = dose: 100.0 mg/kg/injection, schedule: Q01DX001 (ip), vehicle: Klucel (hydroxypropylcellulose) (HPC)
[9] = dose: 100.0 mg/kg/injection, schedule: Q01DX001 (ip), vehicle: saline
[10] = dose: 200.0 mg/kg/injection, schedule: Q01DX001 (ip), vehicle: saline
[11] = dose: 400.0 mg/kg/injection, schedule: Q01DX001 (ip), vehicle: saline
[12] = dose: 100.0 mg/kg/injection, schedule: Q04DX002 (ip), vehicle: Klucel (hydroxypropylcellulose) (HPC)
[13] = dose: 200.0 mg/kg/injection, schedule: Q04DX002 (ip), vehicle: Klucel (hydroxypropylcellulose) (HPC)
[14] = dose: 400.0 mg/kg/injection, schedule: Q04DX002 (ip), vehicle: Klucel (hydroxypropylcellulose) (HPC)
[15] = dose: 100.0 mg/kg/injection, schedule: Q01DX001 (ip), vehicle: carboxymethylcellulose (CMC)
[16] = dose: 200.0 mg/kg/injection, schedule: Q01DX001 (ip), vehicle: carboxymethylcellulose (CMC)
[17] = dose: 400.0 mg/kg/injection, schedule: Q01DX001 (ip), vehicle: carboxymethylcellulose (CMC)

Measured: T/C

Cc1ccc(S(=O)(=O)NNC(=O)c2ccc[nH]2)cc1
inactive: dose: 75.0 mg/kg/injection, schedule: Q01DX001 (ip), vehicle: saline 101 % of control | dose: 150.0 mg/kg/injection, schedule: Q01DX001 (ip), vehicle: saline 101 % of control | [1] 96 % of control

CSc1ccc(C(=NO)c2ccc(SC)cc2)cc1
inactive: [2] 95 % of control | [3] 101 % of control | [4] 103 % of control | [5] 94 % of control | [6] 95 % of control | [7] 103 % of control

Cc1ccc(S(=O)(=O)OCC2C3C=CC(C3)C2COS(=O)(=O)c2ccc(C)cc2)cc1 (configuration not stated)
inactive: [2] 92 % of control | [3] 95 % of control | [4] 97 % of control | [5] 98 % of control | [6] 98 % of control | [7] 95 % of control

O=C(CCc1ccncc1)Nc1ccccc1
inactive: [3] 100 % of control | [5] 96 % of control | [7] 100 % of control

O=C1c2ccsc2C(=O)c2sccc21
inactive: dose: 100.0 mg/kg/injection, schedule: Q01DX001 (ip), vehicle: saline with Tween-80 103 % of control | dose: 200.0 mg/kg/injection, schedule: Q01DX001 (ip), vehicle: saline with Tween-80 92 % of control

Clc1ccc(CNc2ccc(Cl)c(Cl)c2)cc1
inactive: dose: 200.0 mg/kg/injection, schedule: Q04DX002 (ip), vehicle: saline with Tween-80 92 % of control | dose: 400.0 mg/kg/injection, schedule: Q04DX002 (ip), vehicle: saline with Tween-80 89 % of control

c1ccc2c(c1)C(=C1c3ccccc3-c3ccccc31)c1ccccc1-2
inactive: [8] 104 % of control | dose: 200.0 mg/kg/injection, schedule: Q01DX001 (ip), vehicle: Klucel (hydroxypropylcellulose) (HPC) 96 % of control

CN(C=O)c1ccc(C(=O)NC(CC(=O)O)CC(=O)O)cc1
inactive: [9] 111 % of control | [10] 94 % of control | [11] 103 % of control

NC(=O)NNC(N)=O
inactive: dose: 50.0 mg/kg/injection, schedule: Q01DX009 (ip), vehicle: saline 91 % of control | dose: 100.0 mg/kg/injection, schedule: Q01DX009 (ip), vehicle: saline 98 % of control | dose: 100.0 mg/kg/injection, schedule: Q04DX003 (ip), vehicle: saline 102 % of control | dose: 200.0 mg/kg/injection, schedule: Q04DX003 (ip), vehicle: saline 101 % of control

BrC1(Br)C2CC3C(CC21)C3(Br)Br (configuration not stated)
inactive: dose: 100.0 mg/kg/injection, schedule: Q01DX001 (ip), vehicle: saline sonified 98 % of control | dose: 200.0 mg/kg/injection, schedule: Q01DX001 (ip), vehicle: saline sonified 96 % of control | dose: 400.0 mg/kg/injection, schedule: Q01DX001 (ip), vehicle: saline sonified 98 % of control

O=C1CCN(C2CC(O)C(CO)C2)C(=O)N1 (configuration not stated)
inactive: [9] 101 % of control | [10] 95 % of control | [11] 101 % of control

O=C(O)C(=O)Nc1ncccc1C(=O)O
inactive: [12] 114 % of control | [13] 100 % of control | [14] 103 % of control

O=C1C=C/C(=N/S(=O)(=O)c2ccccc2)c2ccccc21
inactive: dose: 6.0 mg/kg/injection, schedule: Q01DX009 (ip), vehicle: DMSO 106 % of control | dose: 12.0 mg/kg/injection, schedule: Q01DX009 (ip), vehicle: DMSO 88 % of control | dose: 25.0 mg/kg/injection, schedule: Q01DX009 (ip), vehicle: DMSO 86 % of control | dose: 25.0 mg/kg/injection, schedule: Q04DX003 (ip), vehicle: DMSO 94 % of control | dose: 50.0 mg/kg/injection, schedule: Q04DX003 (ip), vehicle: DMSO 89 % of control | dose: 100.0 mg/kg/injection, schedule: Q04DX003 (ip), vehicle: DMSO 106 % of control and 88 % of control

Cc1ccc(CCCC(=O)O)c(C)c1
inactive: dose: 100.0 mg/kg/injection, schedule: Q01DX009 (ip), vehicle: saline with Tween-80 105 % of control | dose: 200.0 mg/kg/injection, schedule: Q01DX009 (ip), vehicle: saline with Tween-80 92 % of control | dose: 400.0 mg/kg/injection, schedule: Q01DX009 (ip), vehicle: saline with Tween-80 96 % of control

COc1ccc(/C=C/c2ccc3ccccc3[n+]2C)c(OC)c1OC
inactive: dose: 5.0 mg/kg/injection, schedule: Q01DX009 (oral), vehicle: carboxymethylcellulose (CMC) 104 % of control | dose: 5.0 mg/kg/injection, schedule: Q04DX003 (ip), vehicle: saline with Tween-80 106 % of control | dose: 10.0 mg/kg/injection, schedule: Q01DX009 (oral), vehicle: carboxymethylcellulose (CMC) 98 % of control | dose: 10.0 mg/kg/injection, schedule: Q04DX003 (ip), vehicle: saline with Tween-80 114 % of control | dose: 20.0 mg/kg/injection, schedule: Q01DX009 (oral), vehicle: carboxymethylcellulose (CMC) 106 % of control | dose: 20.0 mg/kg/injection, schedule: Q04DX003 (ip), vehicle: saline with Tween-80 108 % of control | dose: 40.0 mg/kg/injection, schedule: Q01DX009 (oral), vehicle: carboxymethylcellulose (CMC) 109 % of control | dose: 80.0 mg/kg/injection, schedule: Q01DX009 (oral), vehicle: carboxymethylcellulose (CMC) 97 % of control

CCOC(=O)c1ccc(NC(=O)Cn2cnc3c(=S)nc[nH]c32)cc1
inactive: dose: 25.0 mg/kg/injection, schedule: Q01DX001 (ip), vehicle: Klucel (hydroxypropylcellulose) (HPC) 92 % of control | dose: 50.0 mg/kg/injection, schedule: Q01DX001 (ip), vehicle: Klucel (hydroxypropylcellulose) (HPC) 106 % of control | [8] 95 % of control

Nc1ccccc1SC1CC(=O)N(c2cccc(Cl)c2)C1=O (configuration not stated)
inactive: [2] 91 % of control | [3] 94 % of control | [4] 92 % of control | [5] 95 % of control | [6] 91 % of control | [7] 94 % of control

CON=C1CCC(C(C)(C)C)CC1 (configuration not stated)
inactive: dose: 75.0 mg/kg/injection, schedule: Q01DX001 (ip), vehicle: carboxymethylcellulose (CMC) 106 % of control

CC(=O)Nc1ccc(C=O)cc1[N+](=O)[O-]
inactive: [2] 101 % of control | [3] 100 % of control | [4] 104 % of control | [5] 100 % of control | [6] 94 % of control | [7] 100 % of control

COc1cccc(-c2c(C(=O)OC(C)(C)C)cc(O)c3ccc(OC)cc23)c1
inactive: [15] 97 % of control | [16] 96 % of control | [17] 97 % of control

CCO/C(C)=N/OC(=O)c1cc(Cl)ccc1Cl
inactive: [12] 98 % of control | [13] 110 % of control | [14] 113 % of control

Cc1ccc(C)c(NC(=O)Nc2cccc3ccccc23)c1
inactive: dose: 100.0 mg/kg/injection, schedule: Q01DX009 (ip), vehicle: gum acacia 96 % of control | [3] 89 % of control | dose: 200.0 mg/kg/injection, schedule: Q01DX009 (ip), vehicle: gum acacia 100 % of control | [5] 93 % of control | dose: 400.0 mg/kg/injection, schedule: Q01DX009 (ip), vehicle: gum acacia 91 % of control | [7] 98 % of control

Nc1c(Br)cc2c(c1Br)C(=O)c1cc(Br)ccc1-2
inactive: [15] 92 % of control | [16] 94 % of control | [17] 97 % of control

CCCCCCCCCCCCCCCC(=O)N1CCCN(C(=O)CCCCCCCCCCCCCCC)C1
inactive: dose: 30.0 mg/kg/injection, schedule: Q01DX001 (ip), vehicle: saline 93 % of control | [9] 88 % of control | [1] 94 % of control

C=CC(=O)Nc1cccc(OC(=O)NC(C)(C)C)c1
inactive: dose: 100.0 mg/kg/injection, schedule: Q04DX003 (ip), vehicle: saline with Tween-80 101 % of control | dose: 200.0 mg/kg/injection, schedule: Q04DX003 (ip), vehicle: saline with Tween-80 92 % of control | dose: 400.0 mg/kg/injection, schedule: Q04DX003 (ip), vehicle: saline with Tween-80 87 % of control

Nc1[nH]c(=S)ncc1-c1ccc(Cl)c(Cl)c1
inactive: [3] 101 % of control | [5] 97 % of control | [7] 93 % of control
